Assay results: patent publication US6372493B1, “Hormone-secreting cells maintained in long-term culture” (Pacific Biomedical Research, Inc. [Cell Mart, Inc.], priority 1991, dated 2002)

Key:
[1] = system: daughter-islet cells from human pancreas whole islets; experiment: Indirect immunofluorescence for insulin after glucose stimulation of daughter-islets (Example 22); type: cell-based; conditions: 12 mM glucose 3 hours
Method: The first assessment was made after three months in culture at the eighth passage generation and the second assessment was made after the sixteenth passage generation and eight months in continuous culture. On the average the daughter-islet cells were passed every 10-14 days. To test the response of the cells to glucose stimulation, the cultures were given a glucose poor basal medium. The basal medium as set forth in Formula VI below was a RPMI-1640 derivative containing 2 mM glucose. The cells remained in glucose poor medium for a period of 4 hours. The cells were first washed five times for 10 minutes each in the Formula VI medium prior to a 3 hour final incubation in the same basal medium. Subsequently the cultures were placed in the same medium, except that its total glucose concentration was 12 mM (instead of 2 mM glucose) for 3 hours and then prepared for indirect immunofluorescence to detect the presence of insulin.
The materials and partial protocol used in this example were as follows:
1. Primary antibody: Guinea pig monoclonal anti-insulin (human) [Peninsula Laboratories, Inc. IFK-7303G] working dilution used was 1:200.
2. Secondary antibody: Rabbit anti-guinea pig IgG (whole molecule) affinity isolated—TRITC conjugate (Sigma T-7153).
3. Negative control: 1 ml of the primary antiserum of the Guinea pig monoclonal anti-insulin (human) was added to 50 μgm of synthetic human insulin (Peninsula Laboratories, Inc.).
4. Nuclear counterstain: Hoechst 33258 (Sigma Chemical Co.), 0.1% was used.
The procedures followed for fixing the cells and the amount of primary and secondary antibodies used are given in detail in the description of procedures for Example 23. The control experiment was exposure only to the glucose poor basal medium.

[2] = system: Human pancreas cell cultures, 55 generations; experiment: Time course of insulin secretion in response to glucose (Example 18); type: cell-based
Method: Human pancreas cell cultures from Example 16 were maintained in continuous culture through 55 generations, at which time they had been in culture for 12 months.
Two hours prior to the experiment, the cells were centrifuged at 1070 rpm for 5 minutes and then resuspended in glucose-poor medium consisting of 1 part DMSS plus 6 parts PDM. The cells were incubated in glucose-poor medium (glucose-starved) at a concentration of about 1.5×10^6 cells/ml in 10 ml culture flasks for two hours at 37°.
The cells were then centrifuged and resuspended in the experimental medium consisting of one part DMSS and six parts PDM. The glucose concentration in the experimental medium alone was 1.1 mM. To this medium was added glucose in the concentrations shown in Table 12 below, and the cells were incubated for various times.

O=C[C@H](O)[C@@H](O)[C@H](O)[C@H](O)CO [glucose, D(+)glucose] was tested, and the “% of insulin positive cells” value ([1]; 3 mo. culture (8th passage generation)) was 88%, the “# cells positive for insulin (anti-insulin-RITC)” value ([1]; 3 mo. culture (8th passage generation), 388 cells screened) was 343 and the “% of insulin positive cells” value ([1]; 8 mo. culture (16th passage generation)) was 87%. The “# cells positive for insulin (anti-insulin-RITC)” value ([1]; 8 mo. culture (16th passage generation), 195 cells screened) was 170, the Insulin secreted ([2]; 1 mM glucose added, 1 hr) was 275 μIU Insulin secreted/1.5 milli and the Insulin secreted ([2]; 1 mM glucose added, 2 hr) was 363 μIU Insulin secreted/1.5 milli. For the same compound, the Insulin secreted ([2]; 1 mM glucose added, 3 hr) was 451 μIU Insulin secreted/1.5 milli, the Insulin secreted ([2]; 1 mM glucose added, 5 hr) was 564 μIU Insulin secreted/1.5 milli and the Insulin secreted ([2]; 1 mM glucose added, 7 hr) was 582 μIU Insulin secreted/1.5 milli. The Insulin secreted ([2]; 1 mM glucose added, 24 hr) was 812 μIU Insulin secreted/1.5 milli, the Insulin secreted ([2]; 5.6 mM glucose added, 1 hr) was 3413 μIU Insulin secreted/1.5 milli and the Insulin secreted ([2]; 5.6 mM glucose added, 2 hr) was 982 μIU Insulin secreted/1.5 milli. For the same compound, the Insulin secreted ([2]; 5.6 mM glucose added, 3 hr) was 999 μIU Insulin secreted/1.5 milli, the Insulin secreted ([2]; 5.6 mM glucose added, 5 hr) was 2383 μIU Insulin secreted/1.5 milli and the Insulin secreted ([2]; 5.6 mM glucose added, 7 hr) was 2718 μIU Insulin secreted/1.5 milli. The Insulin secreted ([2]; 5.6 mM glucose added, 24 hr) was 2760 μIU Insulin secreted/1.5 milli, the Insulin secreted ([2]; 11.0 mM glucose added, 1 hr) was 3376 μIU Insulin secreted/1.5 milli and the Insulin secreted ([2]; 11.0 mM glucose added, 2 hr) was 1768 μIU Insulin secreted/1.5 milli. For the same compound, the Insulin secreted ([2]; 11.0 mM glucose added, 3 hr) was 2220 μIU Insulin secreted/1.5 milli, the Insulin secreted ([2]; 11.0 mM glucose added, 5 hr) was 1184 μIU Insulin secreted/1.5 milli and the Insulin secreted ([2]; 11.0 mM glucose added, 7 hr) was 3202 μIU Insulin secreted/1.5 milli. The Insulin secreted ([2]; 11.0 mM glucose added, 24 hr) was 1276 μIU Insulin secreted/1.5 milli, the Insulin secreted ([2]; 16.5 mM glucose added, 1 hr) was 3716 μIU Insulin secreted/1.5 milli and the Insulin secreted ([2]; 16.5 mM glucose added, 2 hr) was 2415 μIU Insulin secreted/1.5 milli. The Insulin secreted ([2]; 16.5 mM glucose added, 3 hr) was 2450 μIU Insulin secreted/1.5 milli, the Insulin secreted ([2]; 16.5 mM glucose added, 5 hr) was 2589 μIU Insulin secreted/1.5 milli and the Insulin secreted ([2]; 16.5 mM glucose added, 7 hr) was 4039 μIU Insulin secreted/1.5 milli. The Insulin secreted ([2]; 16.5 mM glucose added, 24 hr) was 2099 μIU Insulin secreted/1.5 milli, the Insulin secreted ([2]; 22 mM glucose added, 1 hr) was 2538 μIU Insulin secreted/1.5 milli and the Insulin secreted ([2]; 22 mM glucose added, 2 hr) was 1845 μIU Insulin secreted/1.5 milli. The Insulin secreted ([2]; 22 mM glucose added, 3 hr) was 2066 μIU Insulin secreted/1.5 milli, the Insulin secreted ([2]; 22 mM glucose added, 5 hr) was 1722 μIU Insulin secreted/1.5 milli and the Insulin secreted ([2]; 22 mM glucose added, 7 hr) was 1320 μIU Insulin secreted/1.5 milli. For the same compound, the Insulin secreted ([2]; 22 mM glucose added, 24 hr) was 989 μIU Insulin secreted/1.5 milli, the Insulin secreted ([2]; 33 mM glucose added, 1 hr) was 972 μIU Insulin secreted/1.5 milli and the Insulin secreted ([2]; 33 mM glucose added, 2 hr) was 345 μIU Insulin secreted/1.5 milli. For the same compound, the Insulin secreted ([2]; 33 mM glucose added, 3 hr) was 446 μIU Insulin secreted/1.5 milli, the Insulin secreted ([2]; 33 mM glucose added, 5 hr) was 657 μIU Insulin secreted/1.5 milli and the Insulin secreted ([2]; 33 mM glucose added, 7 hr) was 1109 μIU Insulin secreted/1.5 milli. The Insulin secreted ([2]; 33 mM glucose added, 24 hr) was 1073 μIU Insulin secreted/1.5 milli and the “glucose concentration of maximal response” value ([2]; glucose-starved cells, 1 to 24 hr) was 16.5 mM.
